In EP3064205A1, “Therapeutic use of isomeric forms of 2-(4-chlorophenyl)quinolin-4-yl)(piperidin-2-yl)methanol” (Glionova AB, priority 2015, dated 2016):
Read-outs that look alike come from different tables or passages of the source.

How the values were obtained:
Assay in all cases: 3D clonogenic assay (PDX)
Format in all cases: cell-based, human
GXA 3044 = settings: GXA 3044, Asian Gastric; for IC50: Homo sapiens
Procedure: (§1) The anti-tumor efficacy of S1 in the patient-derived tumor xenograft (PDX) tumor panel was assessed, where the efficacy of S1 in PDX tumor panel in the 96-well format, in 10 concentrations in duplicate was performed. Colony formation of tumor cell suspensions in a soft-agar matrix was observed and quantified. The output is IC50 values and dose response-relationships based on number of colonies in control and treatment wells, as identified by an automated image analysis algorithm. Stock solution of S1 was prepared in 100% DMSO at 10 mM concentration (stored at -20°C) and reused for each experiment. Compound final test concentrations: Dilution series ½ i.e.: 50µM, 15, 5, 1.5, 0.5, 0.15, 0.05, 0.015, 0.005 and 0.0015.
(§2) Tumor xenografts (also referred to as patient-derived tumor xenografts) were passaged as subcutaneous xenografts in NMRI nu/nu mice. Tumor xenograft were removed from mice under sterile conditions, mechanically disaggregated and subsequently incubated with an enzyme cocktail consisting of collagenase type IV (41 U/mL), DNase I (125 U/mL), hyaluronidase type III (100 U/mL) and dispase II (1.0 U/mL) in RPMI 1640 medium at 37°C for 60 - 120 minutes. Cells were passed through sieves of 100 µm and 40 µm mesh size and washed with RPMI 1640 medium. The percentage of viable cells was determined in a Neubauer-hemocytometer using trypan blue exclusion. Aliquots of the cells were frozen down, and stored in liquid nitrogen.
(§3) The clonogenic assay test was carried out in 96 well plate format. For each test a frozen aliquot of tumor cells prepared from tumor xenografts was thawed and assay plates were prepared as follows: each test well contained 3 layers of equal volume, 2 layers of semi-solid medium (bottom and top layer), and one layer of medium supernatant, with or without test compound. The bottom layer consisted of 0.05 mL/well Iscove's Modified Dulbecco's Medium (Invitrogen), supplemented with 20% (v/v) fetal calf serum (Sigma), 0.01% (w/v) gentamicin (Invitrogen) and 0.75% (w/v) agar (BD Biosciences). Tumor cells were added to 0.05 mL of the same culture medium supplemented with 0.4% (w/v) agar and plated onto the bottom layer. After 24 h, test compounds were added after serial dilution in DMSO and transfer in cell culture medium, and left on the cells for the duration of the experiment (continuous exposure, 0.05 mL drug overlay). Every dish included six untreated control wells and drug-treated groups in duplicate at 10 concentrations. Cultures were incubated at 37 °C and 7.5% CO2 in a humidified atmosphere for 8 to 13 days and monitored closely for colony growth using an inverted microscope. Within this period, ex vivo tumor growth lead to the formation of colonies with a diameter of >50 µm. At the time of maximum colony formation, counts were performed with an automatic image analysis system. 24 h prior to evaluation, vital colonies were stained with a sterile aqueous solution of 2-(4-iodophenyl)-3-(4-nitrophenyl)-5-phenyltetrazolium chloride (1 mg/mL, 100 µL/well). Sigmoidal concentration-response curves were fitted to the data points obtained for each tumor model using 4 parameter non-linear curve fit (Oncotest Warehouse Software). IC50 values are reported as relative IC50 values, being the concentration of test compound that give a response (inhibition of colony formation/viability) half way between the top and bottom plateau of the sigmoidal concentration-response curve (inflection point of the curve), or as absolute IC50 values, being the concentration of test compound at the intersection of the concentration-response curves with T/C = 50%. For calculation of mean IC50 values the geometric mean was used. Results are presented as mean graph plots or heat maps (individual IC50 values relative to the geometric mean IC50 value) over all cell lines as tested.

GXF 1172 = settings: GXF 1172, Gastric; for IC50: Homo sapiens
Procedure: as §1, §2, §3

GXF 97 = settings: GXF 97, Gastric; for IC50: Homo sapiens
Procedure: as §1, §2, §3

LXFA 297 = settings: LXFA 297, Lung Adeno; for IC50: Homo sapiens
Procedure: as §1, §2, §3

LXFE 397 = settings: LXFE 397, Lung Epidermoid; for IC50: Homo sapiens
Procedure: as §1, §2, §3

LXFL 1072 = settings: LXFL 1072, Lung Large Cell; for IC50: Homo sapiens
Procedure: as §1, §2, §3

MEXF 1792 = settings: MEXF 1792, Melanoma; for IC50: Homo sapiens
Procedure: as §1, §2, §3

MEXF 622 = settings: MEXF 622, Melanoma; for IC50: Homo sapiens
Procedure: as §1, §2, §3

PAXF 2059 = settings: PAXF 2059, Pancreas; for IC50: Homo sapiens
Procedure: as §1, §2, §3

PAXF 2094 = settings: PAXF 2094, Pancreas; for IC50: Homo sapiens
Procedure: as §1, §2, §3

PAXF 2116 = settings: PAXF 2116, Pancreas; for IC50: Homo sapiens
Procedure: as §1, §2, §3

PRXF PC-3M = settings: Prostate; for IC50: Homo sapiens
Procedure: as §1, §2, §3

In the case of `O[C@H](c1cc(-c2ccc(Cl)cc2)nc2ccccc12)[C@@H]1CCCCN1` [S1, (R)-(2-(4-chlorophenyl)quinolin-4-yl)((S)-piperidin-2-yl)methanol], the “b (bottom plateau of concentration-effect curve)” value (GXA 3044) is reported as 15, the “t (top plateau of concentration-effect curve)” value (GXA 3044) is reported as 101 and the IC50 (GXA 3044; read-out: abs. IC50) is reported as 9.08 µM. For the same compound, the IC50 (GXA 3044; read-out: rel. IC50) was 8.95 µM, the “b (bottom plateau of concentration-effect curve)” value (GXF 1172) was 28 and the “t (top plateau of concentration-effect curve)” value (GXF 1172) was 79. The IC50 (GXF 1172; read-out: abs. IC50) was 12.8 µM, the IC50 (GXF 1172; read-out: rel. IC50) was 12.5 µM and the “b (bottom plateau of concentration-effect curve)” value (GXF 97) was 20. The “t (top plateau of concentration-effect curve)” value (GXF 97) was 97, the IC50 (GXF 97; read-out: abs. IC50) was 6.21 µM and the IC50 (GXF 97; read-out: rel. IC50) was 5.71 µM. For the same compound, the IC50 (LXFA 297; read-out: abs. IC50) was 8.58 µM, the IC50 (LXFA 297; read-out: rel. IC50) was 8.45 µM and the “b (bottom plateau of concentration-effect curve)” value (LXFA 297) was 24. For the same compound, the “t (top plateau of concentration-effect curve)” value (LXFA 297) was 100, the IC50 (LXFE 397; read-out: abs. IC50) was 5.14 µM and the IC50 (LXFE 397; read-out: rel. IC50) was 4.77 µM. The “b (bottom plateau of concentration-effect curve)” value (LXFE 397) was 35, the “t (top plateau of concentration-effect curve)” value (LXFE 397) was 100 and the IC50 (LXFL 1072; read-out: abs. IC50) was 7.6 µM. For the same compound, the IC50 (LXFL 1072; read-out: rel. IC50) was 7.58 µM, the “b (bottom plateau of concentration-effect curve)” value (LXFL 1072) was 0 and the “t (top plateau of concentration-effect curve)” value (LXFL 1072) was 101. The IC50 (MEXF 1792; read-out: abs. IC50) was 6.19 µM, the IC50 (MEXF 1792; read-out: rel. IC50) was 6.15 µM and the “b (bottom plateau of concentration-effect curve)” value (MEXF 1792) was 5. For the same compound, the “t (top plateau of concentration-effect curve)” value (MEXF 1792) was 99, the IC50 (MEXF 622; read-out: abs. IC50) was 9.21 µM and the IC50 (MEXF 622; read-out: rel. IC50) was 9.14 µM. For the same compound, the “b (bottom plateau of concentration-effect curve)” value (MEXF 622) was 21, the “t (top plateau of concentration-effect curve)” value (MEXF 622) was 86 and the IC50 (PAXF 2059; read-out: abs. IC50) was 13.8 µM. The IC50 (PAXF 2059; read-out: rel. IC50) was 13 µM, the “b (bottom plateau of concentration-effect curve)” value (PAXF 2059) was 18 and the “t (top plateau of concentration-effect curve)” value (PAXF 2059) was 130. The IC50 (PAXF 2094; read-out: abs. IC50) was 8.88 µM, the IC50 (PAXF 2094; read-out: rel. IC50) was 8.64 µM and the “b (bottom plateau of concentration-effect curve)” value (PAXF 2094) was 30. For the same compound, the “t (top plateau of concentration-effect curve)” value (PAXF 2094) was 105, the IC50 (PAXF 2116; read-out: abs. IC50) was 9.16 µM and the IC50 (PAXF 2116; read-out: rel. IC50) was 8.85 µM. The “b (bottom plateau of concentration-effect curve)” value (PAXF 2116) was 32, the “t (top plateau of concentration-effect curve)” value (PAXF 2116) was 112 and the IC50 (PRXF PC-3M; read-out: abs. IC50) was 16.9 µM. For the same compound, the IC50 (PRXF PC-3M; read-out: rel. IC50) was 16.9 µM, the “b (bottom plateau of concentration-effect curve)” value (PRXF PC-3M) was 3 and the “t (top plateau of concentration-effect curve)” value (PRXF PC-3M) was 98.
